Test system: 4T1 mouse breast cancer cell xenografted model
Test: In vivo antitumor efficacy, 4T1 mouse breast cancer xenografted model
Conditions: BALB/c female mice, 4T1 tumor
Procedure: All animal experiments were performed complying with the guidelines for the care and use of laboratory animals of the Peking University Animal Study Committee’s requirements. Experimental procedures were carried out by a protocol approved for institutional animal care. A total of 24 BALB/c female mice (5–6 weeks) were used in this study. The PBS suspension containing 2.5 × 10^4 4T1 cells was injected subcutaneously into female BALB/c mice. […] The body weight and tumor volume of each mouse were measured at regular intervals to evaluate the antitumor effects and toxicity of different drugs. […] One mouse from each group was randomly selected, and its major organs and tumor tissues were collected, then Hematoxylin and Eosin (H&E) staining were utilized to evaluate the degree of apoptosis in mice.

For `COc1cccc2c1C(=O)c1c(O)c3c(c(O)c1C2=O)C[C@@](O)(C(=O)CO)C[C@@H]3O[C@H]1C[C@H](N)[C@H](O)[C@H](C)O1` [DOX, Doxorubicin], the “body weight change during treatment” value (tail vein injection) was “decreased significantly”, the final tumor weight (tail vein injection on days 0, 4, 8, 12) was 0.47 g and the “tumor volume increase after 14 days” value (tail vein injection on days 0, 4, 8, 12, group sacrificed on the 14th day) was 11.03 fold. For the same compound, the final tumor weight (tail vein injection on days 0, 4, 8, 12, listed as free DOX) was 0.67 g.
